From patent US9486472B2, “Methods for modulating neuronal responses” (UNIVERSITY OF BRITISH COLUMBIA CANADA, priority 2003, dated 2016)

What was measured:
NMDA receptor channel = biological target: T1, NMDA receptor channel (Rattus norvegicus, UniProt P35439); experiment: NMDA-evoked [Ca2+]i responses (Fura-2); format: cell-based; details: NMDA 100 μM, 500 ms puffs; sucrose 400 mM in bath
T1 construct: we loaded hippocampal neurons with the intracellular Ca2+ dye, Fura-2; endogenous in cells; host or cells: primary rat hippocampal neurons (E18 Sprague Dawley)
Description: (§1) Hippocampi were rapidly removed from embryonic E l 8 Sprague Dawley rats and pooled prior to trituration. Hippocampal cell suspensions were plated onto poly-Dlysine coated culture dishes or glass coverslips and grown in Neurobasal™ media 10 (Invitrogen) for 14 days in vitro (DIV). The media from mature 14 DIV neurons was removed and replaced with 100 μM NMDA plus 10 μM glycine for 1 h at 37° C. prior to restoring neurons to the defined growth media. Twenty four hours after NMDA/glycine application, neurons were processed using cell death assays. NMDA-induced [Ca^2+]i responses were evoked and measured using methods described previously^26.

hippocampal neurons = experiment: NMDA- or STS-induced apoptosis in cultured hippocampal neurons (Cell Death ELISA, 11-dUTP, PI staining); format: cell-based, rat; details: 100 μM NMDA + 10 μM glycine 1 h, read at 24 h; APV 50 μM; sucrose 0.4 M; myr-Dyn 100 μM; R2-CT 1 μM with Pep-1
Description: as §1
Apoptosis quantification: NMDA-induced apoptosis was quantified either using a Cell Death Detection Elisa Plus Kit (Roche Applied Sciences), which is based on the in vitro determination of cytoplasmic histone-associated DNA fragments, or using TdT mediated addition of biotinylated 11-dUTP to the free 3′-OH ends of DNA. Absorbance readings for both assays were carried out using a microplate reader.
Propidium Iodide (PI) staining of nuclei: After the induction of apoptosis, cells were fixed with 4% parafonnaldehyde/4% sucrose for 10 min followed by ice cold acetone for 1 min, and then stained with […] PI in Dulbecco's PBS for 30 min. Stained coverslips were mounted onto glass slides and viewed with a Leica fluorescence microscope to identify condensed nuclei. Cells with condensed nuclei were counted as apoptotic and the percentage of apoptotic cells to the total number of cells was calculated to give a semi-quantitative analysis, expressed as percentage of apoptosis.
A short peptide (YKEGYNVYGIE (SEQ ID NO. 2)) corresponding to amino acid residues from 869 to 879 of the C-terminus of GluR2 (R2-CT) was synthesized and incubated with a carrier protein (Pep-1)23 at a ratio of 1:20 in Dulbecco's modified Eagle's medium
(DMEM, Gibco) at 37° C. in a humidified atmosphere containing 5% CO2 for 30 min to allow the formation of R2-CT/Pep-1 complex. Hippocampal neurons (DW 12-14) were then overlaid with the preformed complex to reach a final R2-CT concentration of 1 μM and further incubated for 1 h before experiments commenced. Receptor Trafficking Assays

Akt = Akt phosphorylation at serine 473 (Western blot); format: cell-based, rat
Description: Immunoprecipitation and Western blotting were carried out essentially as previously reported.^14 Proteins from cerebral cortex, hippocampal slices, cultured hippocampal neurons or transfected HEK293 cells were solubilized in RIPA buffer containing either 1% SDS (plus 5 min boiling; denaturing conditions) or 1% DOC (non-denaturing conditions). For immunoprecipitation, 500 μg of protein from these tissue lysates was incubated with their respective antibodies in 500 μl of RIPA buffer for 4 h at 4° C. Protein A-sepharose was added to the mixture and incubated for an additional 2 h. The complex was isolated by centrifugation and washed three times. Proteins eluted from the sepharose beads were subjected to SDS-PAGE and immunoblotting using their respective antibodies. For sequential re-probing of the same blots, the membranes were stripped of the initial primary and secondary antibodies and subjected to immunoblotting with another antibody. Blots were developed using enhanced chemiluminescence detection (Amersham). Band intensities were quantified using Scion Image PC software.
The serine/threonine kinase Akt/PKB has been implicated in protecting neurons from apoptotic cell death^17 and inhibition of this kinase activity has been suspected to be involved in NMDA receptor-mediated apoptosis^18. […]

transferrin receptor = experiment: Transferrin receptor endocytosis assay; format: cell-based, rat; details: fluorescently-labeled transferrin 30 min; sucrose 0.4 M; R2-CT+Pep-1 one hour prior to and during
Description: Transferrin receptor endocytosis assay: To assess the effect of endocytosis inhibitors on transferrin receptor endocytosis, hippocampal neurons were incubated with […] Alexa-A488 conjugated transferrin (Molecular Probes) for 30 min at 37° C. in the presence or absence of endocytosis inhibitors. Internalized receptors were then viewed with a Leica fluorescence microscope.

[1] = test system: AMPA receptor (wild type GluR2); experiment: Colorimetric cell-ELISA receptor internalization assay, HEK293 cells expressing GluR2; format: cell-based, rat; details: insulin 0.5 μM, 10 min; approximately 25% without insulin
Description: Rat HA-tagged GluR1 and GluR2 receptor subunit cDNAs have been described previously^14. Constructs of HA-GluR2 carboxyl internal deletion or truncation mutants were made by standard PCR methods. The HA-GluR23Y-3A mutant was made using a Quick-Change Site Directed Mutagenesis Kit (Stratagene). HEK293 cells (ATCC) were transfected using the calcium phosphate precipitation method. Thirty six to forty eight hours after transfection, cells were washed with extracellular recording solution (ECS in mM: 140 NaCl, 33 glucose, 25 HEPES, 5.4 KCl, 1.3 CaCl2; pH 7.4, 320 mOsm) and incubated in ECS for at least one hour (serum starvation). […]
The ability of these mutants to undergo both constitutive and regulated endocytosis was assayed as described previously.^14 Surface receptors in live cells were pre-labelled with an anti-HA antibody (or an antibody against the extracellular N-terminal domain of GluR2 in the case of GluR2Δ854) at 4° C. […] Internalised receptors were then visualised by confocal microscopy and quantitated by colorimetric cell-ELISA-based receptor internalization assays (FIG. 6A). […] Transfected cells were pre-labeled with anti-HA antibody and then receptor endocytosis was evaluated under basal conditions (constitutive endocytosis) or following insulin stimulation (0.5 μM, 10 min; regulated endocytosis). […]

Row | Molecule | NMDA-evoked [Ca2+]i responses (NMDA receptor channel) | NMDA-induced apoptosis (hippocampal neurons) | NMDA-induced reduction in S473 phosphorylated Akt (Akt; hypertonic sucrose) | STS-induced reduction of Akt phosphorylation (Akt; sucrose treatment) | transferrin receptor endocytosis (transferrin receptor) | cell-surface receptors endocytosed within 30 min [1]
1 | OC[C@H]1O[C@@](CO)(O[C@H]2O[C@H](CO)[C@@H](O)[C@H](O)[C@H]2O)[C@@H](O)[C@@H]1O [sucrose] | did not significantly alter NMDA-evoked [Ca^2+]i responses | dramatically reduced | largely prevented | had no effect on the reduction of Akt phosphorylation following STS treatment | eliminated | –
2 | insulin: human recombinant insulin (Sigma) | – | – | – | – | – | 48%
